Consider 6 compounds from BindingDB's records for doi:10.1021/jm00079a011 (Kanebo, 1992).

The target in the assay is DNA gyrase (Escherichia coli). The assay is described as follows: The inhibitory activity was measured for the supercoiling activity of DNA gyrase isolated from Escherichia coli K-12 C600.

Compound `CN1CCN(c2c(F)cc3c(=O)c(C(=O)O)c4scc5n4c3c2OC5)CC1` yielded an IC50 of 0.727 µM. This counts as sub-micromolar. Then `O=C(O)c1c(=O)c2cc(F)c(N3CCC(O)C3)c3c2n2c(csc12)CO3` (stereo unspecified), with 0.929 µM; and `NC1CCN(c2c(F)cc3c(=O)c(C(=O)O)c4scc5n4c3c2OC5)C1` (stereo unspecified), with 0.666 µM; and `O=C(O)c1c(=O)c2cc(F)c(N3CCNCC3)c3c2n2c(csc12)CO3`, with 0.452 µM.

`O=C(O)c1c(=O)c2cc(F)c(N3CCCC3)c3c2n2c(csc12)CO3` gave an IC50 of 2.58 µM. This IC50 lies about 5.7-fold higher than the previous one. For the compound `CC1COc2c(N3CCNCC3)c(F)cc3c(=O)c(C(=O)O)cn1c23` (stereo unspecified), the IC50 came to 1.69 µM.

For orientation: IC50 means the concentration needed to halve the response being measured.
